Experimental data as given in DBAASP.
In brackets after ≈: the same amount, converted by molar mass.

How the values were obtained:
Assay in all cases: ≥ marks a high value that may be exact or a test limit, other limits are often not marked, values filed in µg/mL are converted to µM
[1] = system: Pseudomonas aeruginosa KCTC 1637
[2] = system: Escherichia coli KCTC 1682
[3] = system: Salmonella typhimurium KCTC 1926
[4] = system: Bacillus subtilis KCTC 3068
[5] = system: Staphylococcus epidermidis KCTC 1917
[6] = system: Staphylococcus aureus KCTC 1621
[7] = system: Bacillus subtilis ATCC 6051
[8] = system: Escherichia coli ATCC 25922
[9] = system: Escherichia coli NEB5alpha
[10] = system: Pseudomonas aeruginosa ATCC 27853
[11] = system: Staphylococcus aureus ATCC 33591
[12] = system: Enterococcus faecium ATCC 700221
[13] = system: Staphylococcus aureus ATCC 43300
[14] = system: Escherichia coli ATCC 8739
[15] = system: Staphylococcus aureus ATCC 6538
[16] = system: Candida albicans ATCC 90028
[17] = system: Listeria innocua
[18] = system: Staphylococcus epidermidis
[19] = system: Streptococcus uberis
[20] = system: Bacillus cereus
[21] = system: Leuconostoc lactis
[22] = system: Pasteurella multocida
[23] = system: Micrococcus luteus
[24] = system: Staphylococcus aureus
[25] = system: Escherichia coli

Question: With `CC[C@H](C)[C@H](NC(=O)[C@H](CCCN=C(N)N)NC(=O)[C@H](CCCCN)NC(=O)[C@H](CCCN=C(N)N)NC(=O)[C@@H](NC(=O)[C@H](CCCN=C(N)N)NC(=O)[C@@H](N)CCCCN)[C@@H](C)CC)C(=O)N[C@@H](CCCCN)C(=O)N[C@@H](CCCCN)C(=O)N[C@@H](Cc1c[nH]c2ccccc12)C(=O)N[C@@H](CC(C)C)C(=O)N[C@@H](CCCN=C(N)N)C(N)=O` [KRIRKRIKKWLR] as the compound, how does the MIC [1] read?
Answer: The MIC was 4 µM (≈ 6.72 µg/mL).

Question: And the MIC [2]?
Answer: The MIC was 2 µM (≈ 3.36 µg/mL).

Question: What about the MIC [3] of the same compound?
Answer: Its MIC is 2 µM (≈ 3.36 µg/mL).

Question: What about the MIC [4] of the same compound?
Answer: Its MIC is 2 µM (≈ 3.36 µg/mL).

Question: And the MIC [5]?
Answer: Its MIC is 1 µM (≈ 1.68 µg/mL).

Question: What about the MIC [6] of the same compound?
Answer: Its MIC is 4 µM (≈ 6.72 µg/mL).

Question: Which MIC [7] does the source give for `CC(C)C[C@H](NC(=O)[C@H](CC(C)C)NC(=O)[C@H](CCC(N)=O)NC(=O)[C@H](CCC(=O)O)NC(=O)[C@H](CC(C)C)NC(=O)[C@@H](N)Cc1ccc(O)cc1)C(=O)N[C@@H](CCCN=C(N)N)C(=O)O` [YLEQLLR] here?
Answer: The MIC was ≥ 53.5 µM.

Question: What about the MIC [8] of the same compound?
Answer: Its MIC is 40.1 µM (≈ 37.5 µg/mL).

Question: And the MIC [9]?
Answer: The MIC was ≥ 241 µM.

Question: Which results are given for `CC[C@H](C)[C@H](NC(=O)[C@H](CCCCN)NC(=O)[C@H](CCCCN)NC(=O)[C@H](CC(C)C)NC(=O)[C@H](CC(C)C)NC(=O)[C@H](CCCCN)NC(=O)[C@H](CCCCN)NC(=O)[C@@H](NC(=O)[C@H](CCCN=C(N)N)NC(=O)[C@H](CCCCN)NC(=O)[C@H](CC(C)C)NC(=O)[C@H](CC(C)C)NC(=O)CN)[C@@H](C)CC)C(=O)N[C@@H](CCCCN)C(=O)N[C@@H](CCCCN)C(=O)N[C@@H](CC(C)C)C(=O)N[C@@H](CC(C)C)C(N)=O` [GLLKRIKKLLKKIKKLL]?
Answer: MIC [10]: 12.5 µM (≈ 25.4 µg/mL); MIC [8]: 12.5 µM (≈ 25.4 µg/mL); MIC [11]: 12.5 µM (≈ 25.4 µg/mL); MIC [12]: 6.3 µM (≈ 12.8 µg/mL)

Question: What does the source list for `CC[C@H](C)[C@H](NC(=O)[C@@H](N)Cc1cnc[nH]1)C(=O)N[C@@H](CCC(N)=O)C(=O)N[C@@H](CCCCN)C(=O)N[C@@H](CCC(=O)O)C(=O)N[C@@H](CC(=O)O)C(=O)N[C@H](C(=O)N1CCC[C@H]1C(=O)N[C@@H](CO)C(=O)N[C@@H](CCC(=O)O)C(=O)N[C@@H](CCCN=C(N)N)C(=O)N[C@@H](Cc1ccc(O)cc1)C(=O)N[C@@H](CC(C)C)C(=O)NCC(=O)N[C@@H](Cc1ccc(O)cc1)C(=O)N[C@@H](CC(C)C)C(=O)N[C@@H](CCC(=O)O)C(=O)N[C@@H](CCC(N)=O)C(=O)N[C@@H](CC(C)C)C(=O)N[C@@H](CC(C)C)C(=O)N[C@@H](CCCN=C(N)N)C(=O)N[C@@H](CC(C)C)C(=O)N[C@@H](CCCCN)C(=O)O)C(C)C` [HIQKEDVPSERYLGYLEQLLRLK]?
Answer: MIC [7]: ≥ 292 µM; MIC [8]: 583 µM (≈ 1650 µg/mL); MIC [9]: ≥ 292 µM

Question: With `NCCCC[C@H](NC(=O)[C@H](CCC(=O)O)NC(=O)[C@H](CC(=O)O)NC(=O)[C@H](CCC(=O)O)NC(=O)[C@H](CC(=O)O)NC(=O)[C@H](CCC(=O)O)NC(=O)[C@@H](N)CC(=O)O)C(=O)N[C@@H](CCCN=C(N)N)C(=O)N[C@@H](CCC(N)=O)C(=O)N1CCC[C@H]1C(=O)N[C@@H](Cc1cnc[nH]1)C(=O)O` [DEDEDEKRQPH] as the compound, how does the MIC [7] read?
Answer: Its MIC is ≥ 500 µM.

Question: What about the MIC [9] of the same compound?
Answer: Its MIC is ≥ 1000 µM.

Question: `CC[C@H](C)[C@H](NC(=O)[C@H](CCCCN)NC(=O)[C@@H](NC(=O)[C@H](CO)NC(=O)[C@H](CC(N)=O)NC(=O)[C@H](Cc1c[nH]c2ccccc12)NC(=O)[C@H](CC(C)C)NC(=O)CN)[C@@H](C)CC)C(=O)N[C@@H](C)C(=O)NCC(=O)N[C@@H](CCCCN)C(=O)N[C@@H](CCCCN)C(=O)N[C@@H](CC(C)C)C(=O)N[C@@H](Cc1ccccc1)C(=O)N[C@H](C(=O)N[C@@H](CC(N)=O)C(=O)N[C@H](C(=O)N[C@@H](CC(C)C)C(=O)N[C@@H](CC(=O)O)C(=O)N[C@@H](CCCCN)C(=O)N[C@H](C(=O)N[C@@H](CCCN=C(N)N)C(=O)N[C@H]1CSSC[C@@H](C(=O)N[C@@H](CCCCN)C(=O)N[C@H](C(=O)N[C@@H](CO)C(=O)N2CCC[C@H]2C(=O)N[C@@H](CC(=O)O)C(=O)N[C@H](C(=O)N[C@@H](CCC(=O)O)C(=O)N[C@@H](Cc2ccc(O)cc2)C(=O)N[C@@H](Cc2cnc[nH]2)C(=O)N[C@@H](CCCCN)C(=O)O)C(C)C)[C@@H](C)O)NC(=O)CNC(=O)CNC(=O)[C@H](C)NC(=O)[C@H](C(C)C)NC(=O)[C@H](CCCCN)NC1=O)[C@@H](C)CC)C(C)C)C(C)C` [GLWNSIKIAGKKLFVNVLDKIRCKVAGGCKTSPDVEYHK] was tested. Which MIC [13] did it give?
Answer: Its MIC is 100 µM (≈ 432 µg/mL).

Question: And the MIC [14]?
Answer: Its MIC is 6.3 µM (≈ 27.2 µg/mL).

Question: And the MIC [15]?
Answer: Its MIC is 6.3 µM (≈ 27.2 µg/mL).

Question: What does the source list for `CC[C@H](C)[C@H](NC(=O)[C@H](CCCCN)NC(=O)[C@@H](NC(=O)[C@H](CO)NC(=O)[C@H](CC(N)=O)NC(=O)[C@H](Cc1c[nH]c2ccccc12)NC(=O)[C@H](CC(C)C)NC(=O)CN)[C@@H](C)CC)C(=O)N[C@@H](C)C(=O)NCC(=O)N[C@@H](CCCCN)C(=O)N[C@@H](CCCCN)C(=O)N[C@@H](CC(C)C)C(=O)N[C@@H](Cc1ccccc1)C(=O)N[C@H](C(=O)N[C@@H](CC(N)=O)C(=O)N[C@H](C(=O)N[C@@H](CC(C)C)C(=O)N[C@@H](CC(=O)O)C(=O)N[C@@H](CCCCN)C(=O)N[C@H](C(=O)N[C@@H](CCCN=C(N)N)C(=O)N[C@@H](CO)C(=O)N[C@@H](CCCCN)C(=O)N[C@H](C(=O)N[C@@H](C)C(=O)NCC(=O)NCC(=O)N[C@@H](CO)C(=O)O)C(C)C)[C@@H](C)CC)C(C)C)C(C)C` [GLWNSIKIAGKKLFVNVLDKIRSKVAGGS]?
Answer: MIC [13]: 25 µM (≈ 77.5 µg/mL); MIC [14]: 3.1 µM (≈ 9.61 µg/mL); MIC [16]: ≥ 100 µM; MIC [15]: 6.3 µM (≈ 19.5 µg/mL)

Question: For `CC[C@H](C)[C@H](NC(=O)[C@@H]1CCCN1C(=O)[C@H](CCSC)NC(=O)[C@H](CC(=O)O)NC(=O)[C@H](CCCN=C(N)N)NC(=O)[C@H](CCC(N)=O)NC(=O)[C@@H]1CCCN1C(=O)[C@H](Cc1ccc(O)cc1)NC(=O)[C@@H]1CCCN1C(=O)[C@@H](N)C(C)C)C(=O)N[C@@H](CCC(N)=O)C(=O)N[C@@H](C)C(=O)N[C@@H](Cc1ccccc1)C(=O)N[C@@H](CC(C)C)C(=O)O` [VPYPQRDMPIQAFL], which MIC [9] is on record?
Answer: The MIC was ≥ 493 µM.

Question: For `CC[C@H](C)[C@H](NC(=O)[C@@H](NC(=O)CN)C(C)C)C(=O)N[C@@H](C)C(=O)N[C@@H](C)C(=O)N[C@@H](C)C(=O)N[C@@H](CCCCN)C(=O)N[C@@H](CCCCN)C(=O)N[C@H](C(=O)N[C@H](C(=O)N[C@@H](CC(N)=O)C(=O)N[C@H](C(=O)N[C@@H](CC(C)C)C(=O)N[C@@H](CCCCN)C(=O)N[C@@H](CC(N)=O)C(=O)N[C@@H](CC(C)C)C(=O)N[C@@H](Cc1ccccc1)C(N)=O)C(C)C)C(C)C)C(C)C` [GVIAAAKKVVNVLKNLF], which MIC [17] is on record?
Answer: The MIC was 14 µM (≈ 25 µg/mL).

Question: And the MIC [18]?
Answer: Its MIC is 6.73 µM (≈ 12 µg/mL).

Question: And the MIC [19]?
Answer: Its MIC is 14 µM (≈ 25 µg/mL).

Question: And the MIC [20]?
Answer: Its MIC is 14 µM (≈ 25 µg/mL).

Question: What about the MIC [21] of the same compound?
Answer: Its MIC is 1.68 µM (≈ 3 µg/mL).

Question: And the MIC [22]?
Answer: Its MIC is ≥ 56 µM.

Question: And the MIC [23]?
Answer: Its MIC is 6.73 µM (≈ 12 µg/mL).

Question: And the MIC [24]?
Answer: The MIC was 14 µM (≈ 25 µg/mL).

Question: What about the MIC [25] of the same compound?
Answer: Its MIC is > 56 µM.

Question: What does the source list for `CC[C@H](C)[C@H](NC(=O)[C@@H](NC(=O)[C@@H]1CCCN1C(=O)[C@@H](NC(=O)[C@@H](NC(=O)[C@H](Cc1cnc[nH]1)NC(=O)[C@@H]1CCCN1C(=O)[C@H](CC(C)C)NC(=O)[C@@H](NC(=O)[C@H](Cc1cnc[nH]1)NC(=O)[C@H](CCC(N)=O)NC(=O)[C@H](C)NC(=O)[C@@H](NC(=O)[C@H](CO)NC(=O)CNC(=O)[C@H](CC(C)C)NC(=O)[C@@H](NC(=O)[C@H](CO)NC(=O)[C@H](CC(C)C)NC(=O)[C@H](CC(C)C)NC(=O)CN)C(C)C)C(C)C)C(C)C)C(C)C)C(C)C)C(C)C)C(=O)N[C@@H](C)C(=O)N[C@@H](CCC(=O)O)C(=O)N[C@@H](Cc1cnc[nH]1)C(=O)N[C@@H](CC(C)C)C(N)=O` [GLLSVLGSVAQHVLPHVVPVIAEHL]?
Answer: MIC [17]: ≥ 38.7 µM; MIC [18]: ≥ 38.7 µM; MIC [19]: ≥ 38.7 µM; MIC [20]: 19.3 µM (≈ 50 µg/mL); MIC [21]: 9.67 µM (≈ 25 µg/mL); MIC [22]: 9.67 µM (≈ 25 µg/mL); MIC [23]: 0.58 µM (≈ 1.5 µg/mL); MIC [24]: 38.7 µM (≈ 100 µg/mL); MIC [25]: 38.7 µM (≈ 100 µg/mL)
